Results on 1 molecule are retold here after patent US12533348B2, “Ferroportin-inhibitors for the use in the treatment of transfusion-dependent beta-thalassemia (TDT)” (Vifor (International) AG, priority 2019, dated 2026).

Each structure is given as a SMILES string. Entries after “also recorded” stand apart in the source; their conditions may differ.

The test concerns Hbb^th3/+ mice. Briefly: NTBI in plasma after blood transfusion (BT) in Hbb^th3/+ mice (Fe-NTA colorimetric assay). Conditions: single oral dose 120 mg/kg 30 min before BT, 3 h post BT (FIG. 13). Type of test: in vivo, mouse. The procedure:
In order to establish the kinetics of NTBI generation in Hbb th3/+ mice (B6.129P2-Hbb-b1tm1Unc Hbb-b2tm1Unc/J, #002683) following blood transfusion (BT) pilot experiments were performed. The wild-type (We) littermates of Hbbth3/+ were used as blood donors for transfusions. Peripheral blood was collected from terminally anesthetized WT mice via retro-orbital route from 3-5 female mice and seven parts of blood were mixed with one part of 14% citrate-phosphate-dextrose adenine and stored at 4° C. until the transfusion (24 h or 15 days). The donor blood was pre-warmed to 37° C. prior to the transfusion. […]
NTBI was measured in murine plasma samples by a Fe-Nitrilotriacetate (NTA)-based assay, adapted from a protocol published by Gosriwatana I et al. 1999 (Quantification of non-transferrin-bound iron in the presence of unsaturated transferrin. Gosriwatana I, Loreal O. Lu S, Brissot P, Porter J, Hider R C. Quantification of non-transferrin-bound iron in the presence of unsaturated transferrin. Anal Biochem. 1999 Sep. 10; 273(2):212-20. First, a solution of 800 mM Nitrilotriacetate acid (NTA) trisodium (Sigma, 72565) and a solution of 800 mM NTA disodium (Sigma, N0128) were prepared and then mixed together to obtain a solution at pH 7.0. […] After 30 minutes of incubation at room temperature, samples were measured in a plate reader (Biotec) at 537 nm.

With `O=C(NCc1ncccc1F)c1coc(CCNCCc2nc3ccccc3[nH]2)n1` [Fpn127], the “NTBI in plasma after blood transfusion” value is reported as “prevents release; also recorded: prevented the increase of NTBI”.
